Test results taken from US20080171710A1, “The Redox/Fyn/c-Cbl Pathway” (priority 2007, published 2008).

Experiments:
Erk1/2 = assay type: cell-based, rat; settings: for PDGF-induced Erk1/2 phosphorylation after toxicant exposure: 30 nM MeHg 24 h, 1 μM Pb, 5 μM paraquat
Experimental: Cells were deprived of PDGF-AA for 5 h before re-exposure to PDGF-AA (10 ng/ml) for 1 h for Western blot or 6 h for luciferase assays of pathway activation. Transient transfection was performed using Fugene6 (Roche, Basel, Switzerland ) transfection solution according to the manufacturer's protocol. For the luciferase assay, cells seeded in 12-well plates were transfected with a reporter plasmid SRE-Luc(firefly) or NF-κB-Luc(firefly) (BD-Clontech, Palo Alto, Calif., United States) and an internal control plasmid pRLSV40-LUC. Analyses of luciferase activity were performed according to the protocol of the Dual Luciferase Assay System (Promega, Madison, Wis., United States), which uses an internal control of Renilla luciferase for quantification, and relative light units were measured using a luminometer.
(§1) Anti-phosphorylated Erk monoclonal, anti-Erk monoclonal, anti-TrkC polyclonal anti-Fyn polyclonal, anti-EGFR polyclonal, anti-c-Met polyclonal, anti-phospho-tyrosine monoclonal, and anti-PDGFRα polyclonal antibodies were obtained from Santa Cruz Biotechnology (Santa Cruz, Calif., United States). Anti-c-Cbl monoclonal antibody was obtained from BD PharMingen (San Diego, Calif., United States). Anti-phosphorylated Akt monoclonal and anti-Akt polyclonal antibodies were obtained from Cell Signaling Technology (Beverly, Mass., United States). Anti-phosphorylated PDGPRα polyclonal antibody was obtained from Biosource (Carlsbad, Calif., United States). The cell culture samples were collected and lysed in RAPI buffer, whereas dissected tissue samples were sonicated in RAPI buffer. Samples were resolved on SDS-PAGE gels and transferred to PVDF membranes (PerkinElmer Life Science. Wellesley, Mass., United States), After being blocked in 5% skim milk in PBS containing 0.1% Tween 20, membranes were incubated with a primary antibody, followed by incubation with an HRP-conjugated secondary antibody (Santa Cruz Biotechnology). Membranes were visualized using Western Blotting Luminol Reagent (Santa Cruz Biotechnology). All analyses of signaling pathway components were conducted in the presence of ligand for the receptor pathway under analysis (either PDGF-AA for PDGFRα, NT-3 or TrkC, HGF for c-Met, or EGF for EGFR).

Fyn = target: T1, Fyn (Rattus norvegicus, UniProt Q62844); assay type: cell-based; settings: for Fyn activation after toxicant exposure: 30 nM MeHg, 1 μM Pb, 5 μM paraquat
T1 construct: 250 μg of total cell lysates were immunoprecipitated with anti-Fyn antibody; endogenous in cells; host or cells: primary rat O-2A/OPCs
Experimental: Fyn kinase activity was quantified using the Universal Tyrosine Kinase Assay Kit (Takara, Madison, Wis., United States). O-2A/OPCs exposed to different treatments were solubilized with an equal volume of the extraction buffer provided with the kit for 15 min, and the resulting lysates were centrifuged at 13,000×g for 15 min at 4° C.; 250 μg of total cell lysates were immunoprecipitated with anti-Fyn antibody (Santa Cruz Biotechnology). Following immunoprecipitation, Fyn immune complexes were washed four times with extraction buffer, and then Fyn kinase activities of each sample were assayed using the kit according to the manufacturer's instructions.

c-Cbl = assay type: cell-based, rat; settings: for c-Cbl phosphorylation after toxicant exposure: 30 nM MeHg, 1 μM Pb, 5 μM paraquat
Experimental: (§2) For the co-immunoprecipitation assay, anti-c-Cbl monoclonal antibody (BD PharMingen) or anti-PDGFRα polyclonal antibody (Santa Cruz Biotechnology) was added to the pre-cleared cell lysates (250 μg of total protein), and the mixtures were gently rocked for 2 h at 4° C. A total of 30 μl of protein A/G agarose was then added to the mixture followed by rotating at 4° C. overnight. The protein A/G agarose was then spun down and washed thoroughly three times. The precipitates were resolved on an 8% SDS-PAGE gel and then were subjected to Western blot analysis using an anti-p-Tyr (for c-Cbl phosphorylation assay) or ubiquitin (for PDGFR ubiquitylation assay) antibody (Santa Cruz Biotechnology).

PDGFRα [1] = assay: PDGFRα phosphorylation (Western blot, anti-PDGFRα(pY742)); assay type: cell-based, rat; settings: for phosphorylation of PDGFRα after toxicant exposure: 30 nM MeHg, 1 μM Pb, 5 μM paraquat
From the text: The cells were then collected and lysed for Western blotting. […] Cells were lysed for Western blot analysis using anti-PDGFRα(pY742) antibody. The membranes were de-probed and then re-probed with antibody against total PDGFRα and anti-β-tubulin antibody. […]
as §1

PDGFRα [2] = assay: PDGFR ubiquitylation (immunoprecipitation assay); assay type: cell-based, rat; settings: co-exposure with MeHg
Experimental: as §2

PDGFRα [3] = assay type: cell-based, rat; settings: for total levels of PDGFRα after toxicant exposure: MeHg 30 nM, 1 μM Pb, 5 μM paraquat
O-2A/OPCs [4] = assay: Cell death of O-2A/OPCs on exposure; assay type: cell-based, rat; settings: MeHg at lower concentrations (not above 50 nM); 1 μM Pb; 5 μM paraquat
Experimental: To generate sufficient numbers of cells for biochemical analysis, cells, were expanded through one to two passages in PDGF+FGF-2 before replating in the presence of PDGF alone. When cells achieved approximately 50% confluence, MeHg, Pb, or paraquat was added to their medium at concentrations indicated. Doses for the toxicants were chosen on the basis of dose-response curves to identify sub-lethal exposure levels, as a reflection of blood and brain toxicant levels of these compounds and, where applicable, on the basis of previous reports. All toxicant concentrations examined were confirmed to cause death of less than 5% of cells over the time course of the experiment.

O-2A/OPCs [5] = assay: Intracellular ROS / redox state measurement; assay type: cell-based, rat; settings: 1 μM Pb or 5 μM paraquat; dyes dihydro-chloromethyl-rosamine or dihydro-calcein-AM
Experimental: Cells were plated in 96-well microplates and grown to about 60% continence. […] Cells were then washed once with HBSS and growth medium to remove free probe. Then, fresh growth medium was added and a baseline fluorescence reading was taken prior to treatment. For NAC pre-treatment. […] Fluorescence was measured in a Wallac 1420 Victor2 multilabel counter (PerkinElmer) using excitation and emission wavelengths of 485 nm and 535 nm, respectively, at different time courses as indicated in the figures. Results are presented as the value change from baseline by the formula (Ftexp−Ftbase)/Ftbase normalized with the control group, where Ftexp=fluorescence at any given time during the experiment in a give well and Ftbase=baseline fluorescence of the same well.

c-Met = assay type: cell-based, rat; settings: MeHg, Pb or paraquat
From the text: as §1

TrkC = assay type: cell-based, rat; settings: MeHg, Pb or paraquat
From the text: as §1

EGFR = assay type: cell-based, rat; settings: MeHg, Pb or paraquat
From the text: as §1

T1 sequence (Q62844 whole entry): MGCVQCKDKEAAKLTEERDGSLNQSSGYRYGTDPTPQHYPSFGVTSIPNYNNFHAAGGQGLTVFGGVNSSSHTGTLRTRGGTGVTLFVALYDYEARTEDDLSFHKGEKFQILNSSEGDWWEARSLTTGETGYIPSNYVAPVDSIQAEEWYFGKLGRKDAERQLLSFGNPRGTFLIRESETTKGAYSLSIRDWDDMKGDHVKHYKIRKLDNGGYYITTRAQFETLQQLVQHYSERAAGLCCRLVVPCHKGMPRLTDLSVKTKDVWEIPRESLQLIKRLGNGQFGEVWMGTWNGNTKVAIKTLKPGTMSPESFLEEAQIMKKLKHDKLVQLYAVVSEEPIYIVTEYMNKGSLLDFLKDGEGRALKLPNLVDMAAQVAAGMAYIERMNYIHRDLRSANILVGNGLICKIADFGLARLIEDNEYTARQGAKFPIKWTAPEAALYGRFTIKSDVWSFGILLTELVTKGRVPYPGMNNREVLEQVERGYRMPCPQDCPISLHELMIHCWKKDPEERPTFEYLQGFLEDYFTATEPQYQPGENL

SMILES | effect on Aβ(1-42) suppression of PDGF-mediated Erk1/2 phosphorylation (Erk1/2; co-exposure with Aβ(1-42)) | effect on MeHg-associated suppression of Erk1/2 phosphorylation (Erk1/2; co-treatment with MeHg) | effect on MeHg-induced Fyn activation (Fyn; added 1 h before MeHg) | effect on MeHg-induced c-Cbl phosphorylation (c-Cbl; added 1 h before MeHg) | effect on Aβ-induced increase in phosphorylated c-Cbl (c-Cbl; co-exposure with Aβ) | effect on MeHg-induced suppression of PDGFRα phosphorylation (PDGFRα [1]; co-exposure with MeHg) | levels of ubiquitylated PDGFRα in MeHg-treated cells (PDGFRα [2]) | effect on Aβ-induced reduction in PDGFRα levels (PDGFRα [3]; co-exposure with Aβ) | effect on MeHg-induced reductions in levels of PDGFRα (PDGFRα [3]; together with MeHg) | PDGF-induced Erk1/2 phosphorylation after toxicant exposure (Erk1/2) | cell death at the concentrations used (O-2A/OPCs [4]) | Fyn activation after toxicant exposure (Fyn) | c-Cbl phosphorylation after toxicant exposure (c-Cbl) | phosphorylation of PDGFRα after toxicant exposure (PDGFRα [1]) | cells more oxidized (intracellular redox state) (O-2A/OPCs [5]) | levels of c-Met after toxicant exposure (c-Met) | levels of TrkC after toxicant exposure (TrkC) | levels of EGFR after toxicant exposure (EGFR) | total levels of PDGFRα after toxicant exposure (PDGFRα [3])
Cl.N [NH4Cl, ammonium chloride] | not | blocked | lack of effect | lack of effect | not blocked | protected | increased levels of ubiquityiated receptor | blocked | blocked | – | – | – | – | – | – | – | – | – | –
[Pb] [Pb, lead] | – | – | – | – | – | – | – | – | – | reduced levels of Erk1/2 phosphorylation | did not cause cell death | activation of Fyn | increased phosphorylation of c-Cbl | reduced | approximately 20% | also reduced | neither Pb or paraquat caused a reduction | also reduced | reduced
C[n+]1ccc(-c2cc[n+](C)cc2)cc1 [paraquat] | – | – | – | – | – | – | – | – | – | reduced levels of Erk1/2 phosphorylation | did not cause cell death | activation of Fyn | increased phosphorylation of c-Cbl | reduced | approximately 20% | also reduced | neither Pb or paraquat caused a reduction | also reduced | reduced
